Legend:
[1] = test system: ERK; parameters: method as in earlier work; settings: Table S1; cited from earlier work
[2] = biological target: T1, AXL (Homo sapiens, UniProt P30530); test: KINOMEscan panel screen; format: binding; settings: read-out: Percent Control(%)
T1 construct: purchased DiscoveRx KINOMEscan (Ambit Biosciences)

[3] = biological target: T2, ABL1(M351T)-phosphorylated (Homo sapiens, UniProt P00519, M351T); test: KINOMEscan panel screen; format: binding; settings: read-out: Percent Control(%)
T2 construct: purchased DiscoveRx KINOMEscan (Ambit Biosciences)

[4] = biological target: T3, MYLK (Homo sapiens, UniProt Q15746); test: KINOMEscan panel screen; format: binding; settings: read-out: Percent Control(%)
T3 construct: purchased DiscoveRx KINOMEscan (Ambit Biosciences)

[5] = biological target: T4, YSK4 (Homo sapiens, UniProt Q56UN5); test: KINOMEscan panel screen; format: binding; settings: read-out: Percent Control(%)
T4 construct: purchased DiscoveRx KINOMEscan (Ambit Biosciences)
T4 sequence (Q56UN5 whole entry): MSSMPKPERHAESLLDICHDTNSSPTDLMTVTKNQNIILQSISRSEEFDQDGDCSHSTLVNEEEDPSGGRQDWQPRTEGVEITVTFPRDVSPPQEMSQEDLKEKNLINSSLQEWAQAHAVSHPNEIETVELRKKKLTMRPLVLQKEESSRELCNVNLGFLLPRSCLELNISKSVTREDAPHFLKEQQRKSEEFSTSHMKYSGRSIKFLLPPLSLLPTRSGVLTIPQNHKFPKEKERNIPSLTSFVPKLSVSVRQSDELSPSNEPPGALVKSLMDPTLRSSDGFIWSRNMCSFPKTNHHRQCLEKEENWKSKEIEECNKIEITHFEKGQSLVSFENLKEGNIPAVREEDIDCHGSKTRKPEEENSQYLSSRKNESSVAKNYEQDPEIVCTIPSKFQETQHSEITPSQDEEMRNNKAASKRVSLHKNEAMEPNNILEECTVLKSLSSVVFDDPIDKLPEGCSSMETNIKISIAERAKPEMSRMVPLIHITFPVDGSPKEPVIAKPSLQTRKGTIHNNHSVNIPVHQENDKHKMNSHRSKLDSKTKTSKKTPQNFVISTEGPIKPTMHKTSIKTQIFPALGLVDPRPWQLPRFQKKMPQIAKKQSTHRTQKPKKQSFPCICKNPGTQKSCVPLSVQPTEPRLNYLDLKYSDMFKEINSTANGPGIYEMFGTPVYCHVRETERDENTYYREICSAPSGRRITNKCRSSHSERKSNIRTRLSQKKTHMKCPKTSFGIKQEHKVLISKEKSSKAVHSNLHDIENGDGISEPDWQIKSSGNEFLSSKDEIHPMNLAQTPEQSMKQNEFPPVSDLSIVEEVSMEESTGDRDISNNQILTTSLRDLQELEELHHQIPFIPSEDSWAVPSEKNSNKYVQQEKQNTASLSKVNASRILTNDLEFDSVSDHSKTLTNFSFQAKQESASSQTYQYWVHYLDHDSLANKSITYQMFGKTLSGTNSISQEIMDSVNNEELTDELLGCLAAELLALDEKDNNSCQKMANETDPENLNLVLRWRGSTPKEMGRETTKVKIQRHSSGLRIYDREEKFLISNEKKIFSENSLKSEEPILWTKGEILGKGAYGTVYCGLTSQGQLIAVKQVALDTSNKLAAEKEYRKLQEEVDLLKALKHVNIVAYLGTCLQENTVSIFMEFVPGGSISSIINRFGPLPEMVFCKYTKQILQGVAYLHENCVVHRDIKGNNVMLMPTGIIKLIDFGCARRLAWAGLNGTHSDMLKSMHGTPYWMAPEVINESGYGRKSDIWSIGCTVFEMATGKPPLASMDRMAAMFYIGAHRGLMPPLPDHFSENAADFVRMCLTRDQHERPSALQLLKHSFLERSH

[6] = biological target: T5, RIOK2 (Homo sapiens, UniProt Q9BVS4); test: KINOMEscan panel screen; format: binding; settings: read-out: Percent Control(%)
T5 construct: purchased DiscoveRx KINOMEscan (Ambit Biosciences)
T5 sequence (Q9BVS4 whole entry): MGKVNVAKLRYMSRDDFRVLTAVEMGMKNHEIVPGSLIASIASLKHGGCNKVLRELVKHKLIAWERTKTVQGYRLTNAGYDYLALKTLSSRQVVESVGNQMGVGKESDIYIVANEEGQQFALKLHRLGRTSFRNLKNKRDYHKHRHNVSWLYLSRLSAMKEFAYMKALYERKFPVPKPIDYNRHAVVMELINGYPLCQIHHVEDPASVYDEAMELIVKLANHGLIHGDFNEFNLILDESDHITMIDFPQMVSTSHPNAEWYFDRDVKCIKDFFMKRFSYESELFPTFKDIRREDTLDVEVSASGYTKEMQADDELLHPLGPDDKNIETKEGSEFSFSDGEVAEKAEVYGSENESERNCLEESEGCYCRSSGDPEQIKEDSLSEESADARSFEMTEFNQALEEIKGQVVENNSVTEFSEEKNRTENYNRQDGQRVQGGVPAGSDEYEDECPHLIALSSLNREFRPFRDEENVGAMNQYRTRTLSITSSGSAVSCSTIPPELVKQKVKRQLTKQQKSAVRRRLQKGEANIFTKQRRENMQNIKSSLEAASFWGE

[7] = test system: PANC-1; test: MTT cell viability assay; settings: Homo sapiens, PANC-1, 72 h
[8] = biological target: T6, WNK3 (Homo sapiens, UniProt Q9BYP7); test: KINOMEscan panel screen; format: binding; settings: read-out: Percent Control(%)
T6 construct: purchased DiscoveRx KINOMEscan (Ambit Biosciences)

[9] = biological target: T7, ERBB3 (Homo sapiens, UniProt P21860); test: KINOMEscan panel screen; format: binding; settings: read-out: Percent Control(%)
T7 construct: purchased DiscoveRx KINOMEscan (Ambit Biosciences)

[10] = biological target: T8, ABL1(F317I)-phosphorylated (Homo sapiens, UniProt P00519, F317I); test: KINOMEscan panel screen; format: binding; settings: read-out: Percent Control(%)
T8 construct: purchased DiscoveRx KINOMEscan (Ambit Biosciences)

[11] = biological target: T9, WEE1 (Homo sapiens, UniProt P30291); test: KINOMEscan panel screen; format: binding; settings: read-out: Percent Control(%)
T9 construct: purchased DiscoveRx KINOMEscan (Ambit Biosciences)

[12] = biological target: T10, ABL1(H396P)-nonphosphorylated (Homo sapiens, UniProt P00519, H396P); test: KINOMEscan panel screen; format: binding; settings: read-out: Percent Control(%)
T10 construct: purchased DiscoveRx KINOMEscan (Ambit Biosciences)

[13] = biological target: T11, PIK3CA (Homo sapiens, UniProt P42336); test: KINOMEscan panel screen; format: binding; settings: read-out: Percent Control(%)
T11 construct: purchased DiscoveRx KINOMEscan (Ambit Biosciences)

[14] = biological target: T12, MAP4K2 (Homo sapiens, UniProt Q12851); test: KINOMEscan panel screen; format: binding; settings: read-out: Percent Control(%)
T12 construct: purchased DiscoveRx KINOMEscan (Ambit Biosciences)
T12 sequence (Q12851 whole entry): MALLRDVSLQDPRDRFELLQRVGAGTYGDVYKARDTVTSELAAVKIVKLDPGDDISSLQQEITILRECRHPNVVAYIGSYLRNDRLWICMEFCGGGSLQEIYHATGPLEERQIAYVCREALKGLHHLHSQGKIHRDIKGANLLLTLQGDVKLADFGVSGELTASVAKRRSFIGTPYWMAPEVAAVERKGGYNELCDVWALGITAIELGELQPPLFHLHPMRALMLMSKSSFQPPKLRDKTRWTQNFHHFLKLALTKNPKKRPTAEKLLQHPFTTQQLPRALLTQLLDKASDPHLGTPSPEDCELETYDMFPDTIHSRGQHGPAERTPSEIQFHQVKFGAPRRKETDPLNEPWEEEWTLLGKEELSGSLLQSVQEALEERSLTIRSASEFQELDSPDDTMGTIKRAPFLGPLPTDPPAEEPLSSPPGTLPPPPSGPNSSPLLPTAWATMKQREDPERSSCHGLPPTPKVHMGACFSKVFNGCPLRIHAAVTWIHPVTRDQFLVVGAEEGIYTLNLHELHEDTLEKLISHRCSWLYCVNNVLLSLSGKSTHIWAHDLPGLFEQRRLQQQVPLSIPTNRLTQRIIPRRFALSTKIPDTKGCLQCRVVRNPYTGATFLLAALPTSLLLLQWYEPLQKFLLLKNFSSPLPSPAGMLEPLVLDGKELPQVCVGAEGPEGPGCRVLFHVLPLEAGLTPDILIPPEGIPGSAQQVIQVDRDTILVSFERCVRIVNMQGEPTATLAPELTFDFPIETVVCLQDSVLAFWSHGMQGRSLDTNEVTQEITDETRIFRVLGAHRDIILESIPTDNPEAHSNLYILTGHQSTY

[15] = biological target: T13, FGFR2 (Homo sapiens, UniProt P21802); test: KINOMEscan panel screen; format: binding; settings: read-out: Percent Control(%)
T13 construct: purchased DiscoveRx KINOMEscan (Ambit Biosciences)

[16] = biological target: T14, PRKCD (Homo sapiens, UniProt Q05655); test: KINOMEscan panel screen; format: binding; settings: read-out: Percent Control(%)
T14 construct: purchased DiscoveRx KINOMEscan (Ambit Biosciences)

[17] = biological target: T15, PLK3 (Homo sapiens, UniProt Q9H4B4); test: KINOMEscan panel screen; format: binding; settings: read-out: Percent Control(%)
T15 construct: purchased DiscoveRx KINOMEscan (Ambit Biosciences)
T15 sequence (Q9H4B4 whole entry): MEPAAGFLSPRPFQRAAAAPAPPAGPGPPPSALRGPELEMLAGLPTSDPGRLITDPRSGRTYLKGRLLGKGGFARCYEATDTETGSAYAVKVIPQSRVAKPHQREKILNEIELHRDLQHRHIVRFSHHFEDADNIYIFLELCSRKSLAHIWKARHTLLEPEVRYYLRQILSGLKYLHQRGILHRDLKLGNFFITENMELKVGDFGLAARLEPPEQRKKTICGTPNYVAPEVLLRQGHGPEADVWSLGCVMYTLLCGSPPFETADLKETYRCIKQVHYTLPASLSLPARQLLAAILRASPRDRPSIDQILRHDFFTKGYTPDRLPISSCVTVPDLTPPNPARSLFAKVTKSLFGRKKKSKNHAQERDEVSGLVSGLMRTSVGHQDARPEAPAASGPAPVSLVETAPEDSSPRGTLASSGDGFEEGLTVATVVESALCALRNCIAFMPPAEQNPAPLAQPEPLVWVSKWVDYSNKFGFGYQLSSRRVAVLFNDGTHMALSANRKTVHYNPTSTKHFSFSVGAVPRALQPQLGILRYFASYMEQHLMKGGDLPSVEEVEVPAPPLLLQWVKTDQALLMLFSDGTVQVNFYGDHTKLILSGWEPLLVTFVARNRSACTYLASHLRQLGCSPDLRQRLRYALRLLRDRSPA

[18] = biological target: T16, MUSK (Homo sapiens, UniProt O15146); test: KINOMEscan panel screen; format: binding; settings: read-out: Percent Control(%)
T16 construct: purchased DiscoveRx KINOMEscan (Ambit Biosciences)

[19] = biological target: T17, CAMK2B (Homo sapiens, UniProt Q13554); test: KINOMEscan panel screen; format: binding; settings: read-out: Percent Control(%)
T17 construct: purchased DiscoveRx KINOMEscan (Ambit Biosciences)

[20] = test system: A2058; test: MTT cell viability assay; settings: Homo sapiens, A2058, 72 h
[21] = biological target: T18, FLT1 (Homo sapiens, UniProt P17948); test: KINOMEscan panel screen; format: binding; settings: read-out: Percent Control(%)
T18 construct: purchased DiscoveRx KINOMEscan (Ambit Biosciences)

[22] = biological target: T19, GSK3B (Homo sapiens, UniProt P49841); test: KINOMEscan panel screen; format: binding; settings: read-out: Percent Control(%)
T19 construct: purchased DiscoveRx KINOMEscan (Ambit Biosciences)

[23] = biological target: T20, YSK1 (Homo sapiens, UniProt O00506); test: KINOMEscan panel screen; format: binding; settings: read-out: Percent Control(%)
T20 construct: purchased DiscoveRx KINOMEscan (Ambit Biosciences)
T20 sequence (O00506 whole entry): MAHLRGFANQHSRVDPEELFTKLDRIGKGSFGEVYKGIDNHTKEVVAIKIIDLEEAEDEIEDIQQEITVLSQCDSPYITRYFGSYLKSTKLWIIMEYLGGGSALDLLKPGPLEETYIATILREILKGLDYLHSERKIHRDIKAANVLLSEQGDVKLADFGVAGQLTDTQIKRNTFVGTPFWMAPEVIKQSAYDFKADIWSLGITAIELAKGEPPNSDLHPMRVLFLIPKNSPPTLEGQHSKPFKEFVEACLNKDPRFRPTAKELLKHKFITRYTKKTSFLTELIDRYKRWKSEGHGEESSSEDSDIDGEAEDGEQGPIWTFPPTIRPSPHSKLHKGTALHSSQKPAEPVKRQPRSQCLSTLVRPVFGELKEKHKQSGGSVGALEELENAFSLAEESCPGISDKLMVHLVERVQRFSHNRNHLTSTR

[24] = biological target: T21, MARK1 (Homo sapiens, UniProt Q9P0L2); test: KINOMEscan panel screen; format: binding; settings: read-out: Percent Control(%)
T21 construct: purchased DiscoveRx KINOMEscan (Ambit Biosciences)

[25] = biological target: T22, PIK3C2G (Homo sapiens, UniProt O75747); test: KINOMEscan panel screen; format: binding; settings: read-out: Percent Control(%)
T22 construct: purchased DiscoveRx KINOMEscan (Ambit Biosciences)

[26] = biological target: T23, TXK (Homo sapiens, UniProt P42681); test: KINOMEscan panel screen; format: binding; settings: read-out: Percent Control(%)
T23 construct: purchased DiscoveRx KINOMEscan (Ambit Biosciences)
T23 sequence (P42681 whole entry): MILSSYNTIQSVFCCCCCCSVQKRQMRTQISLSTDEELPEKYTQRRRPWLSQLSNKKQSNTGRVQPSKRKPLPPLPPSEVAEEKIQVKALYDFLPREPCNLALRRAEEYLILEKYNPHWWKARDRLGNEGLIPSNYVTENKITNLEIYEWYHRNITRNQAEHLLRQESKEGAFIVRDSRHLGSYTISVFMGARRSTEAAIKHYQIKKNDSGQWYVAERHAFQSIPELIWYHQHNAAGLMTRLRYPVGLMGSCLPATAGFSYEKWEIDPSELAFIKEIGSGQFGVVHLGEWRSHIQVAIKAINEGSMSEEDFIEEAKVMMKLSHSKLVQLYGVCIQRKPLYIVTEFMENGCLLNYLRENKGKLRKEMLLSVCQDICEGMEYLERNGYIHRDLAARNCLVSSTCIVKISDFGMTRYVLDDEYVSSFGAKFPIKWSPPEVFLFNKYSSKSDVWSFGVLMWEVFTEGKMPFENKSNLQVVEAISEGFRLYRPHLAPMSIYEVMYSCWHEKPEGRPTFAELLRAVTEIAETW

[27] = biological target: T24, DMPK (Homo sapiens, UniProt Q09013); test: KINOMEscan panel screen; format: binding; settings: read-out: Percent Control(%)
T24 construct: purchased DiscoveRx KINOMEscan (Ambit Biosciences)
T24 sequence (Q09013 1-629): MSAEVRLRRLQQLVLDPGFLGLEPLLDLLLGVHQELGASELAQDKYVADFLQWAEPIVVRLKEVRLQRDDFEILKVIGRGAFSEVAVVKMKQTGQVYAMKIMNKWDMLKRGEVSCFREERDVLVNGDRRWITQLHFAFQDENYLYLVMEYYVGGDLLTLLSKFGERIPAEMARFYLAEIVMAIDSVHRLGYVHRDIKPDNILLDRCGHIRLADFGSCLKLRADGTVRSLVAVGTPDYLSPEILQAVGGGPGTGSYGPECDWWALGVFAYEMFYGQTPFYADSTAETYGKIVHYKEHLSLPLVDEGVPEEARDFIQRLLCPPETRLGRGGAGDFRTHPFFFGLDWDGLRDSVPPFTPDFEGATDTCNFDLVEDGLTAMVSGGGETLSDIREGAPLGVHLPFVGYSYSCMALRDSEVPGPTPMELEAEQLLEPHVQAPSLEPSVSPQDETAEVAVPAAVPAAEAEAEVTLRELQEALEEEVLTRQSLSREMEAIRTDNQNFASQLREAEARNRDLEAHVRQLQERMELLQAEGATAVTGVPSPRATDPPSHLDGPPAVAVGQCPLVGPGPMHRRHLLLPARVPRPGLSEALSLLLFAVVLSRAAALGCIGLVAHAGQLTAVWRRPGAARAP

[28] = biological target: T25, EGFR(L747-E749del, A750P) (Homo sapiens, UniProt P00533, A750P/DEL747-749); test: KINOMEscan panel screen; format: binding; settings: read-out: Percent Control(%)
T25 construct: purchased DiscoveRx KINOMEscan (Ambit Biosciences)
T25 sequence (P00533 with tags, fused parts or gaps DEL747-749/A750P limits assumed): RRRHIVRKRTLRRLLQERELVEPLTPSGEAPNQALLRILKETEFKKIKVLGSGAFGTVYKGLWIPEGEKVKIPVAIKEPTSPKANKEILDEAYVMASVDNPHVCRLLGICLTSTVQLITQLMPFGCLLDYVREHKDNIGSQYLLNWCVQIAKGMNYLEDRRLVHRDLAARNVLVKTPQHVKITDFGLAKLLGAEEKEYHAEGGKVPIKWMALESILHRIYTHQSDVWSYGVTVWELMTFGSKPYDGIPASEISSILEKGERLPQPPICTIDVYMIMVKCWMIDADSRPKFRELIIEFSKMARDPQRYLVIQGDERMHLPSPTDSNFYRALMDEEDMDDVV

[29] = biological target: T26, TSSK1B (Homo sapiens, UniProt Q9BXA7); test: KINOMEscan panel screen; format: binding; settings: read-out: Percent Control(%)
T26 construct: purchased DiscoveRx KINOMEscan (Ambit Biosciences)

[30] = biological target: T27, FLT4 (Homo sapiens, UniProt P35916); test: KINOMEscan panel screen; format: binding; settings: read-out: Percent Control(%)
T27 construct: purchased DiscoveRx KINOMEscan (Ambit Biosciences)

[31] = biological target: T28, ABL1(H396P)-phosphorylated (Homo sapiens, UniProt P00519, H396P); test: KINOMEscan panel screen; format: binding; settings: read-out: Percent Control(%)
T28 construct: purchased DiscoveRx KINOMEscan (Ambit Biosciences)

[32] = biological target: T29, CSNK1E (Homo sapiens, UniProt P49674); test: KINOMEscan panel screen; format: binding; settings: read-out: Percent Control(%)
T29 construct: purchased DiscoveRx KINOMEscan (Ambit Biosciences)

[33] = biological target: T30, CDK9 (Homo sapiens, UniProt P50750); test: KINOMEscan panel screen; format: binding; settings: read-out: Percent Control(%)
T30 construct: purchased DiscoveRx KINOMEscan (Ambit Biosciences)

[34] = biological target: T31, PRKD2 (Homo sapiens, UniProt Q9BZL6); test: KINOMEscan panel screen; format: binding; settings: read-out: Percent Control(%)
T31 construct: purchased DiscoveRx KINOMEscan (Ambit Biosciences)

[35] = biological target: T32, DAPK2 (Homo sapiens, UniProt Q9UIK4); test: KINOMEscan panel screen; format: binding; settings: read-out: Percent Control(%)
T32 construct: purchased DiscoveRx KINOMEscan (Ambit Biosciences)
T32 sequence (Q9UIK4 whole entry): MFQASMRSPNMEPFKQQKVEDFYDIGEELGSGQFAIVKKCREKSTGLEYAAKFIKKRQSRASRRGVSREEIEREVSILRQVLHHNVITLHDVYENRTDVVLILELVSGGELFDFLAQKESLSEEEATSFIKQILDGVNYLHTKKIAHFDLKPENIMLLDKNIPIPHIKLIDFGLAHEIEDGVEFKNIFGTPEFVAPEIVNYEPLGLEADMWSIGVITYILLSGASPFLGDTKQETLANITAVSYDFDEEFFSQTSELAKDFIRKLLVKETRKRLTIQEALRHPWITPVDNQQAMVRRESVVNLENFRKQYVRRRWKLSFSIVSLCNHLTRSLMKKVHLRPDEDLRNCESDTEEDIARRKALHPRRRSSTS

In the case of O=C(Nc1ccc(Oc2ncnc3[nH]ncc23)cc1)Nc1ccc(Cl)c(C(F)(F)F)c1 [Compound 1, 1-(4-(1H-pyrazolo[3,4-d]pyrimidin-4-yloxy)phenyl)-3-(4-chloro-3-(trifluoromethyl)phenyl)urea], the IC50 [1] is listed as > 10 µM.
Work on CC(C)(C)c1cc(NC(=O)Nc2ccc(Oc3ncnc4[nH]ncc34)c(F)c2)no1 [SKLB-677, 1-(4-(1H-pyrazolo[3,4-d]pyrimidin-4-yloxy)-3-fluorophenyl)-3-(5-tert-butylisoxazol-3-yl)urea] yielded a remaining binding at 10 µM [2] of 3.8%, a remaining binding at 10 µM [3] of 5.6% and a remaining binding at 10 µM [4] of 40%. For the same compound, the remaining binding at 10 µM [5] was 0.15%, the remaining binding at 10 µM [6] was 88% and the IC50 [7] was > 10 µM. It also gave a remaining binding at 10 µM [8] of 100%, a remaining binding at 10 µM [9] of 98% and a remaining binding at 10 µM [10] of 43%. It also gave a remaining binding at 10 µM [11] of 64%, a remaining binding at 10 µM [12] of 5.8% and a remaining binding at 10 µM [13] of 100%. The remaining binding at 10 µM [14] was 28%, the remaining binding at 10 µM [15] was 2% and the remaining binding at 10 µM [16] was 61%. The remaining binding at 10 µM [17] was 100%, the remaining binding at 10 µM [18] was 0% and the remaining binding at 10 µM [19] was 77%. For the same compound, the IC50 [20] was > 10 µM, the remaining binding at 10 µM [21] was 0.05% and the remaining binding at 10 µM [22] was 96%. The remaining binding at 10 µM [23] was 35%, the remaining binding at 10 µM [24] was 78% and the remaining binding at 10 µM [25] was 100%. For the same compound, the remaining binding at 10 µM [26] was 88%, the remaining binding at 10 µM [27] was 100% and the remaining binding at 10 µM [28] was 19%. The remaining binding at 10 µM [29] was 100%, the remaining binding at 10 µM [30] was 0% and the remaining binding at 10 µM [31] was 11%. For the same compound, the remaining binding at 10 µM [32] was 31%, the remaining binding at 10 µM [33] was 5.6% and the remaining binding at 10 µM [34] was 28%. For the same compound, the remaining binding at 10 µM [35] was 83%.

— article PMC4620497 (Scientific Reports, 2015)
